Test system: barley seedlings
Experiment: Heavy metal uptake of barley seedlings on floating culture substrate or agar substrate (ICP-MS of leaves and roots)
Assay type: in vivo, Hordeum vulgare cv. Barke
Details: for Concentration of heavy metal ions in barley seedlings, Shoot, Agar: grown on agar; for Concentration of heavy metal ions in barley seedlings, Shoot, Agar / Concentration of heavy metal ions in barley seedlings, Root, Floatable Substrate / Concentration of heavy metal ions in barley seedlings, Shoot, Floatable Substrate: 6 day old plants; for Concentration of heavy metal ions in barley seedlings, Root, Floatable Substrate / Concentration of heavy metal ions in barley seedlings, Shoot, Floatable Substrate: grown on floatable substrate; for Factor by which concentration in the roots was increased compared to shoot tissue: seedlings grown on floatable substrate
Method: MS-basal Medium or Hoagland's medium was supplemented with heavy metals as follows: stock solutions of Hg Cl2 (0.1 M) or Cd(NO3)2•4H2O (0.1 M) were applied to the autoclaved medium when it had cooled to about 55° C. such that final heavy metal-ion concentrations of 10, 20, 30 and 40 μM were obtained.
Agar culturing substrate was prepared by adding 1.5 wt/vol % agar (Sigma) to Hoagland's or MS-basal medium. After heating to 100° C., respective amounts of heavy metal salts were added when the medium had cooled down to […]. Then the mixture was poured into Phytotray II™ culture vessels (Sigma) and left to cool for subsequent use.
Barley caryopses prepared and seeded onto a floatable substrate layer as in Example 1. Alternatively, the caryopses were directly placed on culturing agar as described above.
Seedlings were grown as described, and leaves and roots of 6 day old plants were harvested and weighed to determine the fresh weight. Samples were shock-frozen in liquid nitrogen and stored at −80° C.
Total mercury and cadmium content of leaves and roots was determined by electrothermal vaporization inductively coupled plasma-mass spectrometry (Michalke et al., 1997).

Structure (SMILES) | Concentration of heavy metal ions in barley seedlings, Shoot, Agar (added concentration 10 μM) | Concentration of heavy metal ions in barley seedlings, Shoot, Agar (added concentration 20 μM) | Concentration of heavy metal ions in barley seedlings, Shoot, Agar (added concentration 30 μM) | Concentration of heavy metal ions in barley seedlings, Shoot, Agar (added concentration 40 μM) | Concentration of heavy metal ions in barley seedlings, Root, Floatable Substrate (added concentration 10 μM) | Concentration of heavy metal ions in barley seedlings, Shoot, Floatable Substrate (added concentration 10 μM) | Concentration of heavy metal ions in barley seedlings, Root, Floatable Substrate (added concentration 20 μM) | Concentration of heavy metal ions in barley seedlings, Shoot, Floatable Substrate (added concentration 20 μM) | Concentration of heavy metal ions in barley seedlings, Root, Floatable Substrate (added concentration 30 μM) | Concentration of heavy metal ions in barley seedlings, Shoot, Floatable Substrate (added concentration 30 μM) | Concentration of heavy metal ions in barley seedlings, Root, Floatable Substrate (added concentration 40 μM) | Concentration of heavy metal ions in barley seedlings, Shoot, Floatable Substrate (added concentration 40 μM) | Factor by which concentration in the roots was increased compared to shoot tissue
[Cl][Hg][Cl] [Hg^2+, Hg Cl2] | 62 µM | 171 µM | 254 µM | 252 µM | 697 µM | 54 µM | 851 µM | 144 µM | 2060 µM | 239 µM | 2430 µM | 296 µM | 10
O.O.O.O.O=[N+]([O-])[O-].O=[N+]([O-])[O-].[Cd+2] [Cd^2+, Cd(NO3)2•4H2O] | 15 µM | 21 µM | 41 µM | 53 µM | 479 µM | 4 µM | 1270 µM | 27 µM | 1450 µM | 27 µM | 2880 µM | 59 µM | 60

— US20070039241A1, “Floatable granular substrate for culturing plant material” (GSF - Forschungszentrum fur Umwelt und Gesundheit, priority 2003, published 2007)
